The nature of data set [1]: Pharmacokinetic measurements in rats (i.v., i.t., oral). As to conditions: rat; for concentration at 0.1 h: read-out: lung concentration (nM) at time 0.1 h; for concentration at 1.5 h: read-out: lung concentration (nM) at time 1.5 h; for concentration at 6 h: read-out: lung concentration (nM) at time 6 h. It counts as in vivo.
The target in data set [2] is T1, PDGFRβ (Homo sapiens (Human), UniProt P09619). As to the kind of experiment: PDGFRβ enzyme inhibition (ADP-Glo assay). It counts as biochemical. As to conditions: mean, n = 2 (nintedanib n = 34). For orientation: In ADP-Glo the light output rises with the ADP produced.
The target in data set [3] is T1, PDGFRβ. The data set can be described thus: PDGF-BB induced phosphorylation of PDGFRβ in fibroblasts (MRC5, HTRF). The format is cell-based. For orientation: TR-FRET usually uses a lanthanide donor and a delayed reading to cut background.
Data set [4] can be described thus: PAMPA permeability assay. It counts as in vitro ADME. Particulars: for Papp at 5 h, 10 µM: pH 7, 10 μM.
For data set [5], the system named is MRC5 cells. As to the kind of experiment: Cell viability assay in MRC5 cells (MTT).
The mark [6] stands for this setting: male, CD, lung, other: intra-tracheal.
The mark [7] stands for this setting: i.t. dose 0.1 (nintedanib 0.42).
[8] abbreviates: i.v. dose 0.1 (nintedanib 0.42).
Where [9] appears, read: MRC5 cells, PDGFBB stimulation, read-out: PDGFBB-induced PDGFRβ phosphorylation in MRC5 cells (IC50).

Where a name gives a salt, the structure may show the parent alone. Read-outs that look alike come from different tables or passages of the source.

T1 sequence (P09619 33-1106): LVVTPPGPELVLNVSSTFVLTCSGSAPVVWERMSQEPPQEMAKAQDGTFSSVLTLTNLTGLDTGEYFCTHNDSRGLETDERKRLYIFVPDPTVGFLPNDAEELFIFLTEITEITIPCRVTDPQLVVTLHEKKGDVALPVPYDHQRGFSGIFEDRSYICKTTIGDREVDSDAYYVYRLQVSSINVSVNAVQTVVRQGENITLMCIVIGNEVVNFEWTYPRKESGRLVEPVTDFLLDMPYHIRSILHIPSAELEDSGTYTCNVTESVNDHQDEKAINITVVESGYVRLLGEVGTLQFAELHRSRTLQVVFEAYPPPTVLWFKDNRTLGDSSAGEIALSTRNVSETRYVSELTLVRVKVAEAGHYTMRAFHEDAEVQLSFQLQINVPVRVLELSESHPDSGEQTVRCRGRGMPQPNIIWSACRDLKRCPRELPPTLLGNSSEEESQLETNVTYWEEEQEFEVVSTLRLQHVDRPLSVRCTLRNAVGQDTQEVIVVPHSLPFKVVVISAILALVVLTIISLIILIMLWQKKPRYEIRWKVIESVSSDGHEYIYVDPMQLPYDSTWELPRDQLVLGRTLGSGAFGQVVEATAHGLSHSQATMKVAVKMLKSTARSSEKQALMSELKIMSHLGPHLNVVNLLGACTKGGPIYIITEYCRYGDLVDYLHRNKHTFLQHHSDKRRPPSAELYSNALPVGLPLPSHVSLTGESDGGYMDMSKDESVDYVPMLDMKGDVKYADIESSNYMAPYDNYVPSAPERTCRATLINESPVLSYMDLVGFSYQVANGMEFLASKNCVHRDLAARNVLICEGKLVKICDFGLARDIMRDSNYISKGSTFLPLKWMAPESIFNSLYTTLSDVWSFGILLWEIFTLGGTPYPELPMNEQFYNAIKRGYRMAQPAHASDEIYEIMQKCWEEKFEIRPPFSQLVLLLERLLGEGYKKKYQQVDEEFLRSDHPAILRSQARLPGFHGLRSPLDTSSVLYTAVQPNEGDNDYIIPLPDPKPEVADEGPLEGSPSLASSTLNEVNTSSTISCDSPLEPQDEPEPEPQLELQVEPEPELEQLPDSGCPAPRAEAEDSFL

In general, half-life refers to the time needed for the level to fall by half in the phase considered. Lower therefore signals fast loss. The Ki is a measure of affinity in units of concentration, obtained from inhibition or displacement. For orientation: IC50 means the concentration that inhibits the measured activity by half. As a reminder, the Papp is a coefficient for how fast a substance crosses the barrier. The low end stands for poor permeation, the high end for ready permeation. Turning to `COC(=O)c1cc2c(cc1C)/C(=C(/Nc1ccc(C(=O)NC3CCN(C)CC3)cc1)c1ccccc1)C(=O)N2` [Example 18, (Z)-Methyl-5-methyl-3-(((4-((1-methylpiperidin-4-yl)carbamoyl)phenyl)amino)(phenyl)methylene)-2-oxoindoline-6-carboxylate, formate], in data set [1] (male, CD, lung, iv), the concentration at 0.1 h was 638 nM, the concentration at 1.5 h is 306 nM and the concentration at 6 h amounted to 201 nM. In data set [1] (setting [6]), the concentration at 0.1 h came out at 6530 nM, the concentration at 1.5 h worked out at 5990 nM and the concentration at 6 h worked out at 2350 nM. In data set [1] (male, CD, lung, other: intra-tracheal, read-out: lung concentration (nM) at time 24 h), the concentration at 24 h came out at 4520 nM. In data set [1] (male, CD, plasma, iv), this compound had a half-life of 5.1 h. Moreover, in data set [1] (setting [7]), the “i.t. BAV (%)” value is 39%, the “BAL % administered dose at time 0.1 h” value is 6.7%, the “BAL % administered dose at time 1.5 h” value was determined as 2.2% and the “BAL % administered dose at time 6 h” value was determined as 0.4%. The “BAL % administered dose at time 24 h” value in data set [1] (setting [7]) worked out at 0.3%. For the same compound, in data set [1] (setting [8]), the “BAL % administered dose at time 0.1 h” value worked out at 0.13%, the “BAL % administered dose at time 1.5 h” value was 0%, the “BAL % administered dose at time 6 h” value is “BQL” and the “BAL % administered dose at time 24 h” value was “BQL”. The same compound returned a Ki in data set [2] of 7.99 nM. Further, the IC50 in data set [3] was determined as 16.8 nM. The compound further yielded a recovery at 5 hr, 10 μM in data set [4] (pH 7) of 84.5%. The Papp at 5 h, 10 µM in data set [4] turned out to be 0.00383 ×10⁻⁶ cm/s. In data set [5], the “Cell viability at 100 nM (%)” value came to 98.2%, the “Cell viability at 300 nM (%)” value is recorded as 97.3% and the “Cell viability at 1000 nM (%)” value turned out to be 91.8%.
Take `COC(=O)c1cc2c(cc1C)/C(=C(/Nc1ccc(C(=O)NCCCN3CCOCC3)cc1)c1ccccc1)C(=O)N2` [Example 29, (Z)-Methyl 5-methyl-3-(((4-((3-morpholinopropyl)carbamoyl)phenyl)amino)(phenyl)methylene)-2-oxoindoline-6-carboxylate]: the Ki in data set [2] came out at 11.2 nM. Further, the IC50 in data set [3] (setting [9]) is 3.65 nM. In data set [4] (pH 7, PAMPA), the recovery at 5 hr, 10 μM is 72.1% and the Papp at 5 h, 10 µM was 0.373 ×10⁻⁶ cm/s. In data set [5], the “Cell viability at 100 nM (%)” value was found to be 116.9%, the “Cell viability at 300 nM (%)” value was 72.5% and the “Cell viability at 1000 nM (%)” value is reported as 60.8%.
Consider `COCCN(C)CCNC(=O)c1ccc(N/C(=C2\C(=O)Nc3cc(C(=O)OC)c(C)cc32)c2ccccc2)cc1` [Example 35, (Z)-Methyl 3-(((4-((2-((2-methoxyethyl)(methyl)amino)ethyl)carbamoyl)phenyl)amino)(phenyl)methylene)-5-methyl-2-oxoindoline-6-carboxylate, 0.5 formate], for which the inhibitory constant (Ki) in data set [2] turned out to be 17 nM. Moreover, the IC50 in data set [3] (setting [9]) came out at 17.3 nM. Also, in data set [4] (pH 7, PAMPA), the recovery at 5 hr, 10 μM was determined as 79.2% and the Papp at 5 h, 10 µM turned out to be 10.7 ×10⁻⁶ cm/s. In data set [5], the “Cell viability at 100 nM (%)” value is recorded as 99.8%, the “Cell viability at 300 nM (%)” value was found to be 122.5% and the “Cell viability at 1000 nM (%)” value was found to be 99.1%.
In turn, `COC(=O)c1cc2c(cc1C)/C(=C(/Nc1ccc(C(=O)NCCN3CCN(S(C)(=O)=O)CC3)cc1)c1ccccc1)C(=O)N2` [Example 44, (Z)-Methyl-5-methyl-3-(((4-((2-(4-(methylsulfonyl)piperazin-1-yl)ethyl)carbamoyl)phenyl)amino)(phenyl)methylene)-2-oxoindoline-6-carboxylate] gave a Ki in data set [2] of 17.8 nM. For the same compound, in data set [3] (setting [9]), the IC50 was 3.33 nM. In data set [4] (pH 7, PAMPA), the recovery at 5 hr, 10 μM turned out to be 71.7% and the Papp at 5 h, 10 µM is 0.00879 ×10⁻⁶ cm/s. Moreover, in data set [5], the “Cell viability at 100 nM (%)” value turned out to be 98.4%, the “Cell viability at 300 nM (%)” value amounted to 78.4% and the “Cell viability at 1000 nM (%)” value turned out to be 60.4%.
For `COC(=O)c1cc2c(cc1C)/C(=C(/Nc1ccc(S(=O)(=O)N3CCN(CCO)CC3)cc1)c1ccccc1)C(=O)N2` [Example 26, (Z)-Methyl 3-(((4-((4-(2-hydroxyethyl)piperazin-1-yl)sulfonyl)phenyl)amino)(phenyl)methylene)-5-methyl-2-oxoindoline-6-carboxylate, formate], the Ki in data set [2] is 45 nM. The IC50 in data set [3] (setting [9]) worked out at 18.1 nM. In data set [4] (pH 7, PAMPA), this compound came in with a recovery at 5 hr, 10 μM of 96.2% and an apparent permeability (Papp) at 5 h, 10 µM of 10.3 ×10⁻⁶ cm/s. Further, in data set [5], the “Cell viability at 100 nM (%)” value is reported as 84.4%, the “Cell viability at 300 nM (%)” value was determined as 91.6% and the “Cell viability at 1000 nM (%)” value was determined as 57.6%.
Compound `COC(=O)c1cc2c(cc1C)/C(=C(/Nc1ccc(C(=O)N3CCN(C)CC3)cc1)c1ccccc1)C(=O)N2` [Example 17, (Z)-Methyl 5-methyl-3-(((4-(4-methylpiperazine-1-carbonyl)phenyl)amino)(phenyl)methylene)-2-oxoindoline-6-carboxylate] registered a Ki in data set [2] of 9.39 nM. The IC50 in data set [3] (setting [9]) is 4.48 nM. Besides, in data set [4] (pH 7, PAMPA), the recovery at 5 hr, 10 μM was 59.8% and the apparent permeability (Papp) at 5 h, 10 µM stood at 24.6 ×10⁻⁶ cm/s. Further, in data set [5], the “Cell viability at 100 nM (%)” value is listed as 76.2%, the “Cell viability at 300 nM (%)” value is 63.6% and the “Cell viability at 1000 nM (%)” value is on record as 34.1%.
`COC(=O)c1cc2c(cc1C)/C(=C(/Nc1ccc(C(=O)N3CCC(C(=O)NCCN(C)C)CC3)cc1)c1ccccc1)C(=O)N2` [Example 31, (Z)-Methyl 3-(((4-(4-((2-(dimethylamino)ethyl)carbamoyl)piperidine-1-carbonyl)phenyl)amino)(phenyl)methylene)-5-methyl-2-oxoindoline-6-carboxylate, 0.4 formate] gave a Ki in data set [2] of 4.83 nM. Besides, the IC50 in data set [3] (setting [9]) turned out to be 5.52 nM. Further, in data set [4] (pH 7, PAMPA), the recovery at 5 hr, 10 μM is 66.2% and the Papp at 5 h, 10 µM was determined as 0.00531 ×10⁻⁶ cm/s. For the same compound, in data set [5], the “Cell viability at 100 nM (%)” value is listed as 69.3%, the “Cell viability at 300 nM (%)” value is recorded as 47.3% and the “Cell viability at 1000 nM (%)” value was 34.3%.
`COCCNC(=O)CN1CCN(C(=O)c2ccc(N/C(=C3\C(=O)Nc4cc(C(=O)OC)c(C)cc43)c3ccccc3)cc2)CC1` [Example 39, (Z)-Methyl-3-(((4-(4-(2-((2-methoxyethyl)amino)-2-oxoethyl)piperazine-1-carbonyl)phenyl)amino)(phenyl)methylene)-5-methyl-2-oxoindoline-6-carboxylate] returned a Ki in data set [2] of 14.1 nM. Besides, the IC50 in data set [3] (setting [9]) amounted to 5.95 nM. Besides, in data set [4] (pH 7, PAMPA), the recovery at 5 hr, 10 μM stood at 85.7% and the Papp at 5 h, 10 µM is 0.633 ×10⁻⁶ cm/s. Moreover, in data set [5], the “Cell viability at 100 nM (%)” value is reported as 96.2%, the “Cell viability at 300 nM (%)” value amounted to 73.3% and the “Cell viability at 1000 nM (%)” value was 36.7%.
For the compound `COC(=O)c1cc2c(cc1C)/C(=C(/Nc1ccc(C(=O)N3CCC4(CC3)C(=O)NCCCN4C)cc1)c1ccccc1)C(=O)N2` [Example 43, (Z)-Methyl-5-methyl-3-(((4-(7-methyl-12-oxo-3,7,11-triazaspiro[5.6]dodecane-3-carbonyl)phenyl)amino)(phenyl)methylene)-2-oxoindoline-6-carboxylate], the Ki in data set [2] was found to be 25.2 nM. Also, the half-maximal inhibitory concentration (IC50) in data set [3] (setting [9]) was determined as 2.31 nM. Moreover, the Papp at 5 h, 10 µM in data set [4] (pH 7, PAMPA) was 0.865 ×10⁻⁶ cm/s. Further, in data set [5], the “Cell viability at 300 nM (%)” value was 58.8% and the “Cell viability at 1000 nM (%)” value was determined as 6.4%.
Regarding `COC(=O)c1cc2c(cc1C)/C(=C(/Nc1ccc(C(=O)N3CCC4(CC3)C(=O)NCCN4C)cc1)c1ccccc1)C(=O)N2` [Example 30, (Z)-Methyl 5-methyl-3-(((4-(1-methyl-5-oxo-1,4,9-triazaspiro[5.5]undecane-9-carbonyl)phenyl)amino)(phenyl)methylene)-2-oxoindoline-6-carboxylate], in data set [2], the affinity corresponds to a Ki of 10 nM. Further, the IC50 in data set [3] (setting [9]) was determined as 6.02 nM. Further, in data set [4] (pH 7, PAMPA), the recovery at 5 hr, 10 μM worked out at 87.2% and the Papp at 5 h, 10 µM was found to be 0.0235 ×10⁻⁶ cm/s. Also, in data set [5], the “Cell viability at 100 nM (%)” value is given as 107.2%, the “Cell viability at 300 nM (%)” value was determined as 85.3% and the “Cell viability at 1000 nM (%)” value is listed as 16.4%.
`COC(=O)c1cc2c(cc1C)/C(=C(/Nc1ccc(C(=O)NCCCN3CCN(C)CC3)cc1)c1ccccc1)C(=O)N2` [Example 21, (Z)-Methyl-5-methyl-3-(((4-((3-(4-methylpiperazin-1-yl)propyl)carbamoyl)phenyl)amino)(phenyl)methylene)-2-oxoindoline-6-carboxylate, formate]: affinity in data set [2] was put at a Ki of 6.11 nM. Besides, in data set [3] (setting [9]), the IC50 stood at 35.1 nM. Also, in data set [4] (pH 7, PAMPA), the recovery at 5 hr, 10 μM turned out to be 76% and the Papp at 5 h, 10 µM was 0.0442 ×10⁻⁶ cm/s. For the same compound, in data set [5], the “Cell viability at 100 nM (%)” value is listed as 139.6%, the “Cell viability at 300 nM (%)” value came out at 127.3% and the “Cell viability at 1000 nM (%)” value is 98.8%.

Source of the values: US10669235B2, “Indole derivatives and their use as protein kinase inhibitors” (RESPIVERT LIMITED, priority 2016, dated 2020).
